The source of these data is patent US20150322083A1, “(THIENO[2,3-b][1,5]BENZOXAZEPIN-4-YL)PIPERAZIN-1-YL COMPOUNDS AS SELECTIVE 5-HT2A INVERSE AGONISTS” (Eli Lilly and Company, priority 2014, published 2015).

For experiment [1], the target named is T1, recombinant rat 5-HT2A receptor (Rattus norvegicus, UniProt P14842).
T1 construct: expressed in transfected cells; host or cells: AV12 cells, membranes
The experiment can be described thus: 5-HT2A inverse agonism, [35S]GTPγS binding to AV12 membranes (rat receptor). To be noted: n=2, read-out: EC50, inhibition of intrinsic activity of the 5-HT2A receptor. It counts as biochemical. As to the method:
The inverse agonist activity of compounds of the present invention may be determined by literature recognized assay methods measuring [^35S]GTPγS binding to membranes transfected with 5-HT2A receptors in an in vitro activity assay essentially as described below.
Membranes are prepared from frozen pellets of whole AV12 cells expressing the human or rat 5-HT2A receptor. Cells are thawed on ice and homogenized in homogenization buffer (50 mM Tris-HCl, 0.5 mM EDTA, 1 tablet/100 mL of complete EDTA free protease inhibitor tablets (Roche Cat. No. 05 056 489 001), pH=7.4) with 20 strokes of a teflon-glass homogenizer attached to a motorized overhead stirrer. Centrifuge membranes at 1000 rpm (aprox. 150×g) for 15 min. at 4° C. […] The final supernatant is discarded and the pellet is resuspended in homogenization buffer and its protein content is determined by the method of Bradford using BSA as the standard. […]
Test compound is prepared from a 10 mM DMSO stock solution by serial dilution to provide a 10 point concentration response curve, with a final 1% DMSO concentration when added to the assay mixture. […] This mixture is incubated for 3 hr. with constant shaking at room temperature, centrifuged at 300 rpm for 1 min. with no brake and incubated for 3 more hr. before reading in a microplate scintillation counter.

A further experiment deals with Dopamine D3 (Homo sapiens, UniProt P35462). The experiment can be described thus: Dopamine D3 binding. As to the method:
Curves are evaluated using a 4-parameter logistic nonlinear equation to obtain the concentration of competitor causing 50% inhibition of radioligand binding (IC50). Equilibrium dissociation constants (Ki) are calculated according to the equation Ki=IC50/(1+L/Kd), where L equals the concentration of radioligand used in the experiment and Kd equals the equilibrium dissociation constant of the radioligand for the receptor, determined from standard saturation analysis or homologous competition experiments. Reported values for Ki, where n values are indicated, are shown as geometric mean±the standard error of the mean (SEM), with the number of replicate determinations indicated by n. Geometric means are calculated by the equation GeoMean=10̂(Average(log Ki 1+log Ki 2+ . . . log Ki n)/[…]).
Further, the compounds of the invention may be tested in binding assays and functional activity assays by well known methods for other physiologically important receptors such as, but not limited to, the hERG channel, other serotonin receptors (specifically 5-HT1B receptors, lack of agonist activity at 5-HT2B receptors, 5-HT2C, 5-HT5, 5-HT6, and 5-HT7 receptors), dopaminergic receptors (specifically D1, D2, and D3), H1 receptors, GABAA receptors, adrenergic receptors and monoamine transporters.

Each structure is given as a SMILES string. Bounds are passed on as bounds.

T1 sequence (P14842 whole entry): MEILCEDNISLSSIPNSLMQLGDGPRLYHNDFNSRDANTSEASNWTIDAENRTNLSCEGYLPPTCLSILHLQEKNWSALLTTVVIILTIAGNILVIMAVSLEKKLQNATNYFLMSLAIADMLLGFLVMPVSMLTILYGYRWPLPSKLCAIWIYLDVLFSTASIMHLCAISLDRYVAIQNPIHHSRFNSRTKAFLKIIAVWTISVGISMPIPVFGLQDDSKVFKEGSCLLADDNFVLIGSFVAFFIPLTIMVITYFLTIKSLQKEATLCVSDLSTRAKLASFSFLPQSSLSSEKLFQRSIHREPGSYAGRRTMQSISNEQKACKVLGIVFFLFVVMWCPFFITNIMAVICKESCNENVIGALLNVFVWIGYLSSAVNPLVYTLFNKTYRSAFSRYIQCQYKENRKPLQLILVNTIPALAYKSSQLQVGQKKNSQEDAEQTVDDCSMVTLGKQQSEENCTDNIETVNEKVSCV
Chain of Dopamine D3 (P35462 whole entry): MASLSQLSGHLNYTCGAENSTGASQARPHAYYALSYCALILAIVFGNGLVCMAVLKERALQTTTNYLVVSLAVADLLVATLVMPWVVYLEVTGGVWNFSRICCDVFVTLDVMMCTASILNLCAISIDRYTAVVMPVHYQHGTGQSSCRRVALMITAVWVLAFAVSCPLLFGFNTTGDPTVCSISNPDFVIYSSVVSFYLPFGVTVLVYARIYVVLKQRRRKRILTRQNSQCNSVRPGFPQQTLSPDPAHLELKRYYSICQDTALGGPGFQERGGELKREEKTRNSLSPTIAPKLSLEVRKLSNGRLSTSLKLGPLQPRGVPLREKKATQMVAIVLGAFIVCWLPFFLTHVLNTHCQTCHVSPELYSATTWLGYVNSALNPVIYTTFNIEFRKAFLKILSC

Turning to `Cc1ccc2c(c1)Oc1sc(SC(C)C)cc1C(N1CCN(CC(C)(C)C(=O)O)CC1)=N2` [Example 1, 3-[4-(2-isopropylsulfanyl-8-methyl-thieno[2,3-b][1,5]benzoxazepin-4-yl)piperazin-1-yl]-2,2-dimethyl-propanoic acid], in experiment [1], the concentration for a half-maximal effect (EC50) came out at 103 nM. On Dopamine D3, this compound showed a Ki of more than 5470 nM.
